Laboratory results published in PMC6733504, “Effects of flavoring compounds used in electronic cigarette refill liquids on endothelial and vascular function” (PLoS ONE, 2019).
Like-named read-outs stand apart in the source and are kept apart here.

Legend:
endothelial cells = experiment: MTT to formazan conversion (viability); type: cell-based, porcine; conditions: 1 mM, 60 minutes
Experimental: The viability of endothelial cells was judged by incubation with 1 mM of the flavoring compounds, followed by determination of 3-(4,5-dimethyl-2-thiazolyl)-2,5-diphenyltetrazolium bromide (MTT) to formazan conversion using the Cayman MTT Cell Proliferation Assay Kit purchased through VWR International (Vienna, Austria).

[1] = system: endothelium-denuded rat aortic rings; experiment: cAMP and cGMP levels in endothelium-denuded aortic rings
Description: 1 S4 Table. […]
2 endothelium-denuded rat aortic rings.
Flavoring (fmol x mg-1) (fmol x mg-1)
4 En d o th e liu m-denuded rings, treated with test compounds as described in the
5 Materials and methods section of the main text, were freeze-clamped when maximal
6 relaxation had been reached. Rings were homogenized in 5% trichloroacetic acid
7 and analyzed for cAMP and cGMP by radioimmunoassay. Forskolin and DEA/NO
8 were used to induce maximal accumulation of cAMP and cGMP, respectively. Data
9 shown are mean values±SEM of 3 (forskolin and DEA/NO) or 6 (basal,
10 cinnamaldehyde and eugenol) rings; n.d., not determined, *p<0.05 vs. basal (ANOVA
11 and Dunnett's post hoc test).

NO synthase (NOS) = molecular target: T1, NO synthase (NOS) (Sus scrofa, UniProt Q28969); experiment: Endothelial L-citrulline formation (NOS activity in intact cells); type: cell-based, porcine; conditions: for Direct effect on NOS-catalyzed L-citrulline formation: 1 mM, absence of A23187 (S1 Fig)
T1 construct: endogenous in cells; host or cells: primary porcine aortic endothelial cells (up to 3 passages)
T1 sequence (Q28969 1-1205): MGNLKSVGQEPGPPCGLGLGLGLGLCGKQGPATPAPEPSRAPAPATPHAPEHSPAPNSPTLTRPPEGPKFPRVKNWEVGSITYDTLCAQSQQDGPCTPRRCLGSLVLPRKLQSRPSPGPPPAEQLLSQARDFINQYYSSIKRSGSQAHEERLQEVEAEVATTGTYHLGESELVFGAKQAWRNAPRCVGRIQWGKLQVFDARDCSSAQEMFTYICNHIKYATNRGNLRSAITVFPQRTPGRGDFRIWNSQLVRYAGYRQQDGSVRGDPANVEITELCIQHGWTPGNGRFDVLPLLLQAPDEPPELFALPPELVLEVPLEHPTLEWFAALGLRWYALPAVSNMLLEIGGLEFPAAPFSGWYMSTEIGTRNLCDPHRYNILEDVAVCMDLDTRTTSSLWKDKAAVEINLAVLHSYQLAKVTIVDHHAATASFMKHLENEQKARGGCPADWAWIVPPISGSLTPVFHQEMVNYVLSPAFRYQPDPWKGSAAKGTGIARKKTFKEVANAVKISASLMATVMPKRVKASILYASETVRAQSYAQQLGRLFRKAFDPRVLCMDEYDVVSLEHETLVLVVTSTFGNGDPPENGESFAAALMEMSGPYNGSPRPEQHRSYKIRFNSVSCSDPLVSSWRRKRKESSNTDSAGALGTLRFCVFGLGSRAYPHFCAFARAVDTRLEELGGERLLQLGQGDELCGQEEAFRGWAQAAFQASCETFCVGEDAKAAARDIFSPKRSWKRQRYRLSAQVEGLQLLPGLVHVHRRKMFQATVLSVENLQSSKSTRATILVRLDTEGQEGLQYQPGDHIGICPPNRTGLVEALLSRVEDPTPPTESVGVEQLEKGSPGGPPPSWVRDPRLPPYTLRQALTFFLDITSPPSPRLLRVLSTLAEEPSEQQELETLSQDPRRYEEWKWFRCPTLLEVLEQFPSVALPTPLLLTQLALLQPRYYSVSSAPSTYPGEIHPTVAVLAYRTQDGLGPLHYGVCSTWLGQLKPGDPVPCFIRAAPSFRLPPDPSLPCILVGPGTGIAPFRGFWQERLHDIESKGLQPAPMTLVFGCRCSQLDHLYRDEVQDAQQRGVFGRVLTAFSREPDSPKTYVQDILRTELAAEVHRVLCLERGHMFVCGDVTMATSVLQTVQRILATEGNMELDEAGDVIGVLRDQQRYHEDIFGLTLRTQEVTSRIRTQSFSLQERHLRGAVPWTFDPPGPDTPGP
Experimental: NO synthase (NOS) activity in intact cells was determined by monitoring the conversion of L-[^3H]arginine into L-[^3H]citrulline as previously described. […] Subsequent to lysis of the cells with 0.01 M HCl, an aliquot was removed for determination of incorporated radioactivity. To the remaining sample, 200 mM sodium acetate buffer ([…]) containing 10 mM L-citrulline was added (final pH ~5.0), and L-[^3H]citrulline was separated from L-[^3H]arginine by cation exchange chromatography.

rat aortic rings = experiment: Effect of flavorings on vascular tone of U-46619 precontracted aortic rings; conditions: 95% CI
Experimental: Unsexed Sprague-Dawley rats (obtained from Charles River, Sulzfeld, Germany) were housed at the local animal facility in approved cages. […] Animals were euthanized in a box that was gradually filled with CO2 until vital signs had ceased (cessation of respiration and circulation). Subsequently, the thorax of the animals was opened, the thoracic aorta was removed, cleaned from connective tissue and immediately used for assessment of vessel function.
After equilibration for 60 min at the optimal resting tension of 20 mN, maximal contractile activity was determined with a depolarizing solution containing 60 mM K^+. […] When contraction had reached a stable plateau (~after 20 min) cumulative concentration-response curves were established with flavorings. Where indicated, the effects of the flavorings on vascular tone were tested in the presence of the NOS inhibitor N^G-nitro-L-arginine methyl ester (L-NAME, 0.2 mM).
Concentration-response curves of different ring segments from a single animal were averaged and counted as an individual experiment.

[2] = Electrochemical determination of NO released from DEA/NO (NO scavenging); conditions: DEA/NO 1 μM
Experimental: Scavenging of NO by flavoring compounds was studied with a nitric oxide sensor (ISO-NOP, World Precision Instruments, Berlin, Germany), calibrated with acidified nitrite as described previously. Free NO radical was generated by incubation of DEA/NO (1 μM) in 1 ml of 100 mM phosphate buffer, pH 7.4, in the absence or presence of superoxide dismutase (2500 U/ml) at ambient temperature. At the peak concentration of NO, flavoring compounds (10 μl of DSMO stock solutions) were added, DMSO served as vehicle control.

[3] = Rattus norvegicus, absence of L-NAME, read-out: EC50 of relaxation of pre-contracted vessels (Control)
[4] = Rattus norvegicus, presence of L-NAME 0.2 mM, read-out: EC50 of relaxation of pre-contracted vessels (L-NAME)

Row | Compound | Formazan formation (% of control) (endothelial cells) | cAMP ([1]; 1 mM) | cGMP ([1]; 1 mM) | cAMP ([1]; 10 mM) | cGMP ([1]; 10 mM) | Direct effect on NOS-catalyzed L-citrulline formation (NO synthase (NOS)) | EC50 (rat aortic rings; [3]) | EC50 (rat aortic rings; [4]) | EC50 (rat aortic rings; absence of L-NAME, read-out: EC50 of relaxation of pre-contracted vessels (Control)) | Concentration inhibiting Ca2+-stimulated NO synthase activation (NO synthase (NOS)) | Effect on A23187-stimulated L-citrulline formation (endothelial NOS activity) (NO synthase (NOS); 0.3 and 1.0 mM (Fig 2A)) | Effect on recorded NO signal (NO scavenging) ([2]; 1 mM) | Effect on recorded NO signal (NO scavenging) ([2]; 10 mM)
1 | C=CCc1ccc(O)c(OC)c1 [Eugenol, 2-Methoxy-4-(prop-2-en-1-yl)phenol] | 107±4.6 % of control | 162±9 fmol x mg-1 | 81±4 fmol x mg-1 | 171±24 fmol x mg-1 | 71±18 fmol x mg-1 | neither eugenol nor cinnamaldehyde increased | ~500 µM | 500 µM | 400 µM |  |  |  | 
2 | O=C/C=C/c1ccccc1 [Cinnamaldehyde, (2E)-3-Phenylprop-2-enal] | 91±2.6 % of control | 200±36 fmol x mg-1 | 127±10 fmol x mg-1 | 161±7 fmol x mg-1 | 86±7 fmol x mg-1 | neither eugenol nor cinnamaldehyde increased | ~500 µM | 600 µM |  | ≥ 0.3 mM | significantly inhibited | only moderate effects | pronounced decrease
